Data published in patent US11369609B2, “Small molecule Wnt inhibitor as treatment for dyslipidemia” (Yale University, priority 2019, dated 2022).

What was measured:
[1] = tested on: canonical Wnt signaling pathway; experiment: qPCR of canonical Wnt-dependent genes in Wnt3a-treated MLECs; format: cell-based, mouse
Procedure: ChIP DNA or total RNA was used for qPCR. Total RNA was isolated using standard Trizol protocol. RNA was reverse transcribed using the iScript cDNA Synthesis kit (Bio-Rad) and qPCR was performed on a Bio-Rad C1000 Touch thermal cycler using the resultant cDNA, qPCR master mix and gene specific primers. The following primers were used: […]
MLECS were cultured and starved for 4 hours in 0.5% FBS. Cells were treated for 4 hours with Wnt3a (200 ng/ml).
To further examine the specificity of GR in this interaction, a similar experiment in GR siRNA-treated cells was performed.

kidney endothelial cells = experiment: Fatty acid oxidation (14CO2 release from [14C]palmitate) in isolated kidney endothelial cells; format: in vivo, mice; conditions: for FAO, as measured by 14CO2 release: diabetic CD-1 mice treated for 4 weeks
Procedure: Endothelial cells from the kidneys of non-diabetic and diabetic mice were isolated using a standardized kit (Miltenyl Biotech, USA) by following the manufacturer's instructions. Briefly, kidneys were isolated and minced into small pieces. Using a series of enzymatic reactions by treating the tissue with trypsin and Collagenase type I solution, a single cell suspension was created. The pellet was dissolved with CD31 magnetic beads and the CD31-labelled cells were separated on a magnetic separator. The cells were further purified on a column. Cell number was counted by hemocytometer and cells were plated on 0.1% gelatin coated Petri dishes.
Cultured isolated kidney endothelial cells were incubated with medium containing 0.75 mmol/L palmitate (conjugated to 2% free fatty acid-free BSA/[^14C] palmitate at 2 μCi/mL) for 2 h. One mL of the culture medium was transferred to a sealable tube, the cap of which housed a Whatman filter paper disc. ^14CO2 trapped in the media was then released by acidification of media using 60% perchloric acid. Radioactivity that had become adsorbed onto the filter discs was then quantified by liquid scintillation counting.
It is increasingly recognized that defects in central metabolism contribute to kidney fibrosis (69, 76). Defective FA metabolism in EC leads to EndMT events (77). To investigate whether FA metabolism was deranged in the model, radiolabeled [^14C]palmitate uptake experiments were performed in isolated EC from mouse kidneys. FA uptake was higher in isolated EC from the diabetic kidneys of the more fibrotic strain (diabetic CD-1) when compared to kidney EC from the less-fibrotic strain (diabetic C57BL/6). […] FA oxidation (FAO) was also assessed by measuring the ^14CO2 release from radiolabeled [^14C]palmitate in cultured EC isolated from kidneys. […] In the next set of experiments, diabetic CD-1 mice were treated with the FA synthase inhibitor C75, the FAO inhibitor etomoxir, the PPARα agonist fenofibrate, and the cholesterol-lowering drug simvastatin for 4 weeks. […] (FIG. 23A). Fenofibrate and C75 restored the level of GR protein in CD31 positive cells, whereas etomoxir and simvastatin suppressed it (FIG. 23B).

diabetic CD-1 mice = experiment: FA metabolism modulators and simvastatin in diabetic CD-1 mice (renal fibrosis); format: in vivo; conditions: for fibrogenic phenotype / level of fibrosis in kidneys / fibronectin mRNA level in diabetic kidneys / level of GR protein in CD31 positive cells / αSMA mRNA level in diabetic kidneys: diabetic CD-1 mice treated for 4 weeks; for CPT1a level / β-catenin level: diabetic CD-1 mice, kidney immunohistochemistry
Procedure: (§1) All experiments were performed in accordance with the National Institute of Health (NIH) Guidelines for the Care of Laboratory Animals. Mice lacking the endothelial glucocorticoid receptor (GR) (known as GR^ECKO) and those lacking this receptor on the Apo E null background (DKO) were generated as previously described (6). The induction of diabetes in CD-1 mice and C57B/L6 mice was performed according to previously established experimental protocols (38-42). Briefly, diabetes was induced in 10-week-old GR^ECKO mice with five consecutive intraperitoneal (IP) doses of streptozotocin (STZ) 50 mg/kg in 10 mmol/L citrate buffer (pH 4.5). Wnt inhibitor (LGK974) was provided to GR^ECKO and control littermate at 5 mg/kg at a frequency of six doses per week for 8 weeks (43). Etomoxir (20 mg/kg) and c75 (15 mg/kg) were dosed (ip) three times per week for 3 weeks in the GR^ECKO and control littermate. A single IP dose of 200 mg/kg STZ was used to induce diabetes in CD-1 mice. Fenofibrate (100 mg/kg), simvastatin (40 mg/kg), were dosed orally for 4 weeks in diabetic CD-1 mice. All mice were sacrificed after 4 weeks of treatment and tissues and blood were harvested. Urine albumin levels were assayed using a Mouse Albumin ELISA Kit (Exocell, Philadelphia, Pa.).
(§2) A point-counting method was utilized to evaluate the relative area of the mesangial matrix. PAS-stained glomeruli from each mouse were analyzed using a digital microscope screen grid containing 540 (27×20) points. Masson's trichrome-stained images were evaluated by ImageJ software, and the fibrotic areas were estimated.
(§3) Deparaffinized sections were incubated with picrosirius red solution for 1 hour at room temperature. The slides were washed twice with acetic acid solution for 30 seconds per wash. The slides were then dehydrated in absolute alcohol three times, cleared in xylene, and mounted with a synthetic resin. Sirius red staining was analyzed using ImageJ software, and fibrotic areas were quantified.
(§4) Paraffin-embedded kidney sections (5 μm thick) were deparaffinized and rehydrated (2 min in xylene, four times; 1 min in 100% ethanol, twice; 1 min in 95% ethanol; 45 s in 70% ethanol; and 1 min in distilled water), and the antigen was retrieved in a 10 mM citrate buffer pH 6 at 98° C. for 60 min. To block the endogenous peroxidase, all sections were incubated in 0.3% hydrogen peroxide for 10 min. The immunohistochemistry was performed using a Vectastain ABC Kit (Vector Laboratories, Burlingame, Calif.). Mouse anti-[…] antibody (1:100) and CPT1a (Abnova; H00001374-DO1P; 1:100) antibody was used. In the negative controls, the primary antibody was omitted and replaced with the blocking solution.
Frozen kidney sections (5 μm) were used for immunofluorescence; double positive labeling with CD31/αSMA, CD31/TGFβR1 and E-cadherin/αSMA was measured. Briefly, frozen sections were dried and placed in acetone for 10 min at −30° C. Once the sections were dried, they were washed twice in phosphate-buffered saline (PBS) for 5 min and then blocked in 2% bovine serum albumin/PBS for 30 min at room temperature. Thereafter, the sections were incubated in primary antibody (1:100) for 1 hour and washed in PBS (5 min) three times. Next, the sections were incubated with the secondary antibodies for 30 min, washed with PBS three times (5 min each), and mounted with mounting medium with DAPI (Vector Laboratories, Burlingame, Calif.). The immune-labeled sections were analyzed by fluorescence microscopy. For each mouse, original magnification of ×400 pictures were obtained from six different areas, and quantification was performed.
Total RNA was isolated using standard Trizol protocol. RNA was reverse transcribed using the iScript cDNA Synthesis kit (Bio-Rad) and qPCR was performed on a Bio-Rad C1000 Touch thermal cycler using the resultant cDNA, as well as qPCR Master mix and gene specific primers.
It is increasingly recognized that defects in central metabolism contribute to kidney fibrosis (69, 76). […]

[2] = tested on: diabetic GR^ECKO mice and control littermates; experiment: Etomoxir and C75 in diabetic control littermates and diabetic GR^ECKO mice; format: in vivo; conditions: for body weight: diabetic control littermates and GR^ECKO mice, ip three times per week for 3 weeks
Procedure: as §1, §2, §3, §4
Etomoxir and C75 were also tested in the diabetic control littermates and diabetic GR^ECKO mice. […] (FIG. 17D-E).

[3] = Wnt3a-conditioned media 6 hours, then DEX 100 nM 1 hour

Molecule | FAO, as measured by 14CO2 release (kidney endothelial cells) | FAO in kidney EC (kidney endothelial cells; diabetic GR^ECKO mice) | FAO in kidney EC (kidney endothelial cells; diabetic control littermates) | fibrogenic phenotype / level of fibrosis in kidneys (diabetic CD-1 mice) | fibronectin mRNA level in diabetic kidneys (diabetic CD-1 mice) | level of GR protein in CD31 positive cells (diabetic CD-1 mice) | αSMA mRNA level in diabetic kidneys (diabetic CD-1 mice) | CPT1a level (diabetic CD-1 mice) | β-catenin level (diabetic CD-1 mice) | body weight [2] | CPT1a level in kidneys ([2]; diabetic control mice) | level of β-catenin in kidneys ([2]; diabetic control mice) | renal fibrogenic phenotype ([2]; diabetic control mice) | also measured
C[C@@H]1C[C@H]2[C@@H]3CCC4=CC(=O)C=C[C@]4(C)[C@@]3(F)[C@@H](O)C[C@]2(C)[C@@]1(O)C(=O)COP(=O)(O)O [DEX, Dexamethasone phosphate] |  |  |  |  |  |  |  |  |  |  |  |  |  | sox17 expression, control siRNA vs GR siRNA cells ([1]; Wnt3a 200 ng/ml 4 hours, DEX 100 nM 1 hour): suppressed sox17 expression to a much greater extent in control-siRNA treated cells than in GR siRNA-treated cells; axin2 expression [1, 3]: a similar pattern was observed; sox17 expression [1, 3]: suppressed expression
Wnt3a |  |  |  |  |  |  |  |  |  |  |  |  |  | sox17 expression, effect of Wnt3a in GR siRNA-treated cells ([1]; Wnt3a 200 ng/ml 4 hours, GR knockdown): augmented; sox17 expression, effect of Wnt3a ([1]; Wnt3a-conditioned media, MLECs): induced
C=C1C(=O)OC(CCCCCCCC)C1C(=O)O (stereo not shown) [C75] | increased the level of FAO | unable to rescue the level of FAO | restored FAO | ameliorated the fibrogenic phenotype | downregulated | restored | downregulated | induced the level of CPT1a | suppressed the level of β-catenin | no significant differences | restored CPT1a | completely diminished the level of β-catenin | clearly abolished the renal fibrogenic phenotype | 
CCOC(=O)[C@@]1(CCCCCCOc2ccc(Cl)cc2)CO1 [etomoxir] | significant suppression | significant suppression in FAO | significant suppression in FAO | exacerbated the fibrosis | upregulated | suppressed | upregulated | significant suppression | induced | no significant differences | suppressed the CPT1a level | increased the expression level of β-catenin | accelerated the renal fibrogenic phenotype | CPT1a level in kidneys ([2]; diabetic GR^ECKO mice): suppressed the CPT1a level; level of β-catenin in kidneys ([2]; diabetic GR^ECKO mice): increased the expression level of β-catenin; renal fibrogenic phenotype ([2]; diabetic GR^ECKO mice): accelerated the renal fibrogenic phenotype
